Assay results published in patent US10676467B2 (Washington University, priority 2017, dated 2020).
“And” between values parts separate entries of the source, which are not always exact repeats. Identical values can stand only once.

How the values were obtained:
[1] = Ex vivo biodistribution in female Lewis rats; parameters: species or system rat
Description: Organs of blood, heart, lung, muscle, fat, pancreas, spleen, kidney, liver, thymus, brain, and bone were dissected and collected for counting. All the samples were counted with a dilution of the injectate on an automated well counter (Beckman Gamma 8000 well counter). Tissues were weighed and the uptake was reported as background and decay-corrected percent injected dose per gram (% ID/g).
The whole brains were quickly harvested and dissected into regions of cerebellum, brain stem, cortex, striatum, thalamus, and hippocampus, the remainder of the brain was also collected to determine the total brain uptake. Organs of blood, heart, lung, muscle, fat, pancreas, spleen, kidney, liver, thymus, and bone were also dissected and collected for counting. All the samples were counted with a dilution of the injectate on an automated well counter (Beckman Gamma 8000 well counter). Tissues were weighed and the uptake was reported as background and decay-corrected percent injected dose per gram (% ID/g).

[2] = Ex vivo autoradiography of [18F]22b in rat brain; conditions: male SD rat, 60 min post-injection
Description: Frozen slides were directly exposed to a BAS storage phosphor screen film (BAS-IP-MS-2025) in an imaging cassette (Fuji Photo Film Co., Tokyo, Japan) for 12 h at -80° C. under the dark. The distribution of radioactivity was visualized by a Fuji Bio-Imaging Analyzer FLA-7000 (Fuji Photo Film Co., Tokyo, Japan). […] E. Toman, S. Spiegel, Lysophospholipid receptors in the nervous system, Neurochem. Res. 27 (2002) 619-627; […]. Tanaka, J. Aoki, H. Arai, S. Noji, Expression patterns of the lysophospholipid receptor genes during mouse early development, Dev. Dyn. […] Cytochem. 58 (2010) 847-856).

S1P1 [3] = molecular target: S1P1 (Rattus norvegicus (Rat), UniProt P48303); assay: MicroPET and tracer kinetic modeling in EAE rat model, lumbar spinal cord; assay type: in vivo
Description: MicroPET scans were performed using an Inveon PET/CT system (Siemens Inc., Knoxville, Tenn.). […] Each rat was secured to a custom-designed acrylic bed equipped with a nosecone for gas anesthesia. PET/CT scans were conducted under 1.5-2% isoflurane anesthesia with the rat placed in transaxial position and centered with the T13 vertebral spine in the field of view. […] A list mode protocol was used with 60-min dynamic data acquisition.
PET image data was processed using filter back projection algorithm with attenuation and scatter corrections. The data were reconstructed per time frame employing an iterative reconstructional algorithm (three-dimensional ordered subset expectation maximization (3D-OSEM), maximum a posteriori (MAP)) and corrected for decay, random coincidences, scatter, and attenuation. […] Image data was analyzed using Inveon Research Workstation software IRW 4.2 (Siemens Inc., Knoxville, Tenn.). The regions of interest (ROI), the lumbar spinal cord and bilateral common carotid arteries, were drawn over the co-registered PET/CT images using the standard protocol published previously. Time-activity curves (TACs) were obtained and were expressed as % ID/g. A two-tailed t-test was used for the comparison of the tracer uptake in EAE rat lumbar spinal cord versus sham. A P value less than 0.05 was considered statistically significant. Time-activity curves were further analyzed using 2-tissue-compartment model (2TCM), as well as Logan graphical analysis, using the ROI over bilateral common carotid arteries for image-based arterial blood input function.

S1P1 [4] = molecular target: S1P1 (Mus musculus (Mouse), UniProt O08530); assay: In vitro autoradiography of [18F]22b in brain slices of LPS-treated mice, SEW2871 blocking; assay type: binding; conditions: brain sections of LPS-treated mice, ~6 nM tracer, 10 μM SEW2871, 60 min RT
Description: To confirm the binding specificity of [^18F]22b toward S1P1, in vitro autoradiography studies were performed using mouse brain slices that generated from LPS-induced murine neuroinflammation model, a widely used model for neuroinflammation, and the expression of S1P1 was activated in the mouse brain following the LPS injection according to the report (M. Kono, E. G. Conlon, S. Y. Lux, K. Yanagida, T. Hla, R. L. Proia, Bioluminescence imaging of G protein-coupled receptor activation in living mice, Nat. Commun. 8 (2017) 1163). Adult male C57BL/6 mice (20-25 g, Charles River Inc., Frederick, Md.) were used to generate LPS-induced neuroinflammation murine model. The mice (n=2) received an intraperitoneal injection of LPS from E. coli 055:65 (Sigma-Aldrich, St. Louis, Mo., USA) in saline (3 mg/mL) at dose of 15 mg/kg (5 mL/kg) and then euthanized at 24 h post-injection. Mouse brains were collected and cut into 20 μm sequential sections using a Microm cryotome and mounted on glass slides. […] The distribution of radioactivity was visualized by a Fuji Bio-Imaging Analyzer FLA-7000 (Fuji Photo Film, Tokyo, Japan). Photo-stimulated luminescence (PSL) from the brain slices was quantified using Multi Gauge v3.0 software (Fuji Photo Film Co., Tokyo, Japan). Data were background-corrected, and expressed as photo-stimulated luminescence signals per square millimeter (PSL/mm^2).

S1P1 (Rattus norvegicus (Rat), UniProt P48303), sequence (P48303 whole entry): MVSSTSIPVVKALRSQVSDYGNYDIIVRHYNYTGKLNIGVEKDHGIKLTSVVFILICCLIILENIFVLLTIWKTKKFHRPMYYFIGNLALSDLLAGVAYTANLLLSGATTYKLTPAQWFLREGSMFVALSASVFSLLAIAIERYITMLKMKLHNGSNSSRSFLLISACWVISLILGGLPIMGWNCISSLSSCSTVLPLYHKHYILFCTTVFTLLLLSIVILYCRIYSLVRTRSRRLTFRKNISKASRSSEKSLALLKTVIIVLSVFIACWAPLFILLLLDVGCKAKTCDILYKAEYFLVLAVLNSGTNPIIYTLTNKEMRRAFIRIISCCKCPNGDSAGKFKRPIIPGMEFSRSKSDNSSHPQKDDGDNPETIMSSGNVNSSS
S1P1 (Mus musculus (Mouse), UniProt O08530), sequence (O08530 whole entry): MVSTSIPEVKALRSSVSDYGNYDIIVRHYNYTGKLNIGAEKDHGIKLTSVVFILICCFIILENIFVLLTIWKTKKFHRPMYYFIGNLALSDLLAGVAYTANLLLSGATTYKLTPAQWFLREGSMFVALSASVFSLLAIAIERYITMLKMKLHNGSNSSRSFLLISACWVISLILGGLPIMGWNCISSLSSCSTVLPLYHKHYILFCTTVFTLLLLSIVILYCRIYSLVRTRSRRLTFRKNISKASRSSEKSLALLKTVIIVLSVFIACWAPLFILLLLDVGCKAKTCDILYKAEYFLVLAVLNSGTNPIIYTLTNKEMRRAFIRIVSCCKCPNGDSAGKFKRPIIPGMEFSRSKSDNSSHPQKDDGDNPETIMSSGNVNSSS

OCc1cn(Cc2ccc(-c3noc(-c4ccc(OCC[18F])c(C(F)(F)F)c4)n3)cc2)nn1 [[^18F]22b]
Tissue uptake, Blood ([1]; 5 min p.i., n = 4): 0.49 % ID/g and 0.49 ± 0.07 % ID/g
Tissue uptake, Blood ([1]; 30 min p.i., n = 4): 0.42 ± 0.05 % ID/g
Tissue uptake, Blood ([1]; 60 min p.i., n = 4): 0.36 ± 0.02 % ID/g
Tissue uptake, Blood ([1]; 120 min p.i., n = 4): 0.35 ± 0.01 % ID/g
Tissue uptake, Bone ([1]; 5 min p.i., n = 4): 0.55 % ID/g and 0.55 ± 0.05 % ID/g
Tissue uptake, Bone ([1]; 30 min p.i., n = 4): 0.45 ± 0.03 % ID/g
Tissue uptake, Bone ([1]; 60 min p.i., n = 4): 0.45 ± 0.01 % ID/g
Tissue uptake, Bone ([1]; 120 min p.i., n = 4): 0.51 ± 0.05 % ID/g
Tissue uptake, Brain ([1]; 5 min p.i., n = 4): 0.49 % ID/g and 0.49 ± 0.04 % ID/g
Tissue uptake, Brain ([1]; 30 min p.i., n = 4): 0.57 % ID/g and 0.57 ± 0.02 % ID/g
Tissue uptake, Brain ([1]; 60 min p.i., n = 4): 0.71 % ID/g and 0.71 ± 0.03 % ID/g
Tissue uptake, Brain ([1]; 60 min p.i., n = 4, listed as 18F-TZ43113): 0.71 % ID/g
Tissue uptake, Brain ([1]; 120 min p.i., n = 4): 0.61 % ID/g and 0.61 ± 0.05 % ID/g
Tissue uptake, Fat ([1]; 5 min p.i., n = 4): 0.51 % ID/g and 0.51 ± 0.22 % ID/g
Tissue uptake, Fat ([1]; 30 min p.i., n = 4): 0.62 ± 0.10 % ID/g
Tissue uptake, Fat ([1]; 60 min p.i., n = 4): 0.69 ± 0.07 % ID/g
Tissue uptake, Fat ([1]; 120 min p.i., n = 4): 0.57 ± 0.07 % ID/g
Tissue uptake, Heart ([1]; 5 min p.i., n = 4): 1.65 % ID/g and 1.65 ± 0.27 % ID/g
Tissue uptake, Heart ([1]; 30 min p.i., n = 4): 1.19 % ID/g and 1.19 ± 0.06 % ID/g
Tissue uptake, Heart ([1]; 60 min p.i., n = 4): 1.05 ± 0.08 % ID/g
Tissue uptake, Heart ([1]; 120 min p.i., n = 4): 0.94 ± 0.06 % ID/g
Tissue uptake, Kidney ([1]; 5 min p.i., n = 4): 3.43 % ID/g and 3.43 ± 0.31 % ID/g
Tissue uptake, Kidney ([1]; 30 min p.i., n = 4): 2.11 % ID/g and 2.11 ± 0.08 % ID/g
Tissue uptake, Kidney ([1]; 60 min p.i., n = 4): 1.91 ± 0.10 % ID/g
Tissue uptake, Kidney ([1]; 120 min p.i., n = 4): 1.62 ± 0.09 % ID/g
Tissue uptake, Liver ([1]; 5 min p.i., n = 4): 5.69 % ID/g and 5.69 ± 0.60 % ID/g
Tissue uptake, Liver ([1]; 30 min p.i., n = 4): 4.30 % ID/g and 4.30 ± 0.37 % ID/g
Tissue uptake, Liver ([1]; 60 min p.i., n = 4): 4.21 ± 0.21 % ID/g
Tissue uptake, Liver ([1]; 120 min p.i., n = 4): 3.66 ± 0.14 % ID/g
Tissue uptake, Lung ([1]; 5 min p.i., n = 4): 2.79 % ID/g and 2.79 ± 0.57 % ID/g
Tissue uptake, Lung ([1]; 30 min p.i., n = 4): 1.96 % ID/g and 1.96 ± 0.07 % ID/g
Tissue uptake, Lung ([1]; 60 min p.i., n = 4): 1.67 ± 0.09 % ID/g
Tissue uptake, Lung ([1]; 120 min p.i., n = 4): 1.54 ± 0.07 % ID/g
Tissue uptake, Muscle ([1]; 5 min p.i., n = 4): 0.39 % ID/g and 0.39 ± 0.04 % ID/g
Tissue uptake, Muscle ([1]; 30 min p.i., n = 4): 0.59 ± 0.05 % ID/g
Tissue uptake, Muscle ([1]; 60 min p.i., n = 4): 0.51 ± 0.02 % ID/g
Tissue uptake, Muscle ([1]; 120 min p.i., n = 4): 0.47 ± 0.02 % ID/g
Tissue uptake, Pancreas ([1]; 5 min p.i., n = 4): 1.96 % ID/g and 1.96 ± 0.56 % ID/g
Tissue uptake, Pancreas ([1]; 30 min p.i., n = 4): 1.89 ± 0.16 % ID/g
Tissue uptake, Pancreas ([1]; 60 min p.i., n = 4): 1.52 ± 0.25 % ID/g
Tissue uptake, Pancreas ([1]; 120 min p.i., n = 4): 1.45 ± 0.15 % ID/g
Tissue uptake, Spleen ([1]; 5 min p.i., n = 4): 2.22 % ID/g and 2.22 ± 0.23 % ID/g
Tissue uptake, Spleen ([1]; 30 min p.i., n = 4): 1.36 % ID/g and 1.36 ± 0.04 % ID/g
Tissue uptake, Spleen ([1]; 60 min p.i., n = 4): 1.27 ± 0.08 % ID/g
Tissue uptake, Spleen ([1]; 120 min p.i., n = 4): 1.14 ± 0.10 % ID/g
Tissue uptake, Thymus ([1]; 5 min p.i., n = 4): 0.69 % ID/g and 0.69 ± 0.08 % ID/g
Tissue uptake, Thymus ([1]; 30 min p.i., n = 4): 0.83 ± 0.07 % ID/g
Tissue uptake, Thymus ([1]; 60 min p.i., n = 4): 0.82 ± 0.04 % ID/g
Tissue uptake, Thymus ([1]; 120 min p.i., n = 4): 0.78 ± 0.05 % ID/g
Defluorination in vivo (bone uptake 5 to 120 min) ([1]; bone radioactivity unchanged): no defluorination in vivo
Regional brain uptake, brain stem ([1]; brain stem, 5 min p.i.): 0.50 ID %/g
Regional brain uptake, cerebellum ([1]; cerebellum, 5 min p.i.): 0.53 ID %/g
Regional brain uptake, cortex ([1]; cortex, 5 min p.i.): 0.59 ID %/g
Regional brain uptake, hippocampus ([1]; hippocampus, 5 min p.i.): 0.43 ID %/g
Time of maximum brain uptake ([1]; post injection): 60 min
Regional brain uptake, striatum ([1]; striatum, 5 min p.i.): 0.47 ID %/g
Regional brain uptake, thalamus ([1]; thalamus, 5 min p.i.): 0.46 ID %/g
Blood-brain barrier crossing, rat brain [2]: able to cross the BBB
Visualization of rat lumbar spinal cord by microPET (S1P1 [3]; EAE and sham rats): not high enough for clear visualization
Tracer uptake in lumbar spinal cord, EAE (S1P1 [3]; EAE rats, summed % ID/g value, 10-60 min post injection, n=4): 0.47±0.05 % ID/g
Increase of tracer uptake in EAE rat lumbar spinal cord compared with shams (S1P1 [3]; microPET, 10-60 min post injection, listed as 18F-TZ43113): ~37% and 36.7%
Tracer uptake in sham rat spinal cord (TAC) (S1P1 [3]; sham rats, 10-60 min post injection): approximately 0.35 % ID/g
Tracer uptake in lumbar spinal cord, sham (S1P1 [3]; sham rats, summed % ID/g value, 10-60 min post injection, n=4): 0.34±0.05 % ID/g
Reduction of tracer uptake by SEW2871 blocking (S1P1 [4]): ~36%
